Data taken from patent US11564929B2, “Combination therapy with Notch and PI3K/mTOR inhibitors for use in treating cancer” (Eli Lilly and Company, priority 2016, dated 2023).

Test system: A2780 human ovarian carcinoma
Test: Human A2780 xenograft tumor growth in athymic nude mice
Type: in vivo
Protocol: A2780 is a human ovarian cell line (Sigma-Aldrich). The cells are grown in culture media at 37° C. in 5% CO2 with humidity in the atmosphere. Cell culture media for A2780 human ovarian carcinoma is RPMI-1640 (without phenol red) with 2.05 mM L-glutamine, 0.01 mg/ml insulin and 10% fetal bovine serum (EBS) added.
To evaluate in viva efficacy and effect A2780 (2×10^6) cells in a 1:1 Matrigel® mix (0.2 mL volume) are implanted by subcutaneous injection in the hind leg of 6-8 weeks of age athymic nude female mice (Harlan Laboratories). A total of 7 to 10 mice are used for each group. Just before implantation, animals are irradiated ([…]). Mice are fed ad libitum on normal chow. Treatment is initiated with oral administration (gavage) of Compound A or vehicle (1% sodium carboxymethylcellulose (Na-CMC) in 0.25% Tween®-80) or Compound B in 1% hydroxyethyl cellulose (HEC)/0.25% Tween® 80/0.05% Antifoam or their vehicle in 0.2 mL volume when tumor size reached to 150±50 mm^3, in this case after the tumor measurements were taken on study day 9. Compound A was administered at 4 or 8 mg/kg on a Monday, Wednesday and Friday schedule for 4 weeks and Compound B was administered at 15 or 30 mg/kg daily for 28 days. Tumor growth and body weight are monitored over time to evaluate efficacy and signs of toxicity. Bidimensional measurements of tumors are performed twice a week and tumor volumes are calculated based on the following formula: (Tumor Volume)=[(L)×(W2)×(II/6)] where L is mid-axis length and W is mid-axis width. Tumor volume data are transformed to a […] to equalize variance across time and treatment groups. The log volume data are analyzed with a two-way repeated measures analysis of variance by time and treatment using the MIXED™ procedure in SAS™ software (version 8.2). The correlation model for the repeated measures is spatial power. Test Groups are: • 01: Control: 1% HEC/0.25% Tween 80/0.05% Antifoam; 1% CMC/0.25% Tween 80/0.05% Antifoam; • 02: Compound A 8 mg/kg; • 03: Compound B 30 mg/kg; • 04: rapamycin 4 mg/kg; • 05: Compound A 8 mg/kg and Compound B 30 mg/kg; • 06: Compound A 4 mg/kg and Compound B 30 mg/kg; • 07: Compound B 15 mg/kg and Compound A 8 mg/kg; • 08: Compound B 15 mg/kg and Compound A 4 mg/kg; • 09: Compound A 8 mg/kg and rapamycin 4 mg/kg.
Using the repeated measures analysis previously described, a contrast statement is used to test for an interaction effect on study day 36, using the two specific treatments that were combined.

In the case of `C[C@H](NC(=O)CCC(F)(F)F)C(=O)N[C@@H]1C(=O)N(CCO)c2ncccc2-c2ccccc21` [Compound A, 4,4,4-trifluoro-N-[(1S)-2-[[(7S)-5-(2-hydroxyethyl)-6-oxo-7H-pyrido[2,3-d][3]benzazepin-7-yl]amino]-1-methyl-2-oxo-ethyl]butanamide], the “Tumor volume, Geometric Mean” value (Group 02: Compound A 8 mg/kg oral Mon/Wed/Fri, study day 7 (before first dose)) is reported as 121.62 mm^3, the “Tumor volume, Geometric Mean” value (Group 02: Compound A 8 mg/kg oral Mon/Wed/Fri, study day 9 (before first dose)) is reported as 109.98 mm^3 and the “Tumor volume, Geometric Mean” value (Group 02: Compound A 8 mg/kg oral Mon/Wed/Fri, study day 12) is reported as 131.53 mm^3. For the same compound, the “Tumor volume, Geometric Mean” value (Group 02: Compound A 8 mg/kg oral Mon/Wed/Fri, study day 15) was 194.78 mm^3, the “Tumor volume, Geometric Mean” value (Group 02: Compound A 8 mg/kg oral Mon/Wed/Fri, study day 19) was 408.55 mm^3 and the “Tumor volume, Geometric Mean” value (Group 02: Compound A 8 mg/kg oral Mon/Wed/Fri, study day 22) was 639.48 mm^3. The “Tumor volume, Geometric Mean” value (Group 02: Compound A 8 mg/kg oral Mon/Wed/Fri, study day 26) was 1140.46 mm^3, the “Tumor volume, Geometric Mean” value (Group 02: Compound A 8 mg/kg oral Mon/Wed/Fri, study day 29) was 1384.21 mm^3 and the “Tumor volume, Geometric Mean” value (Group 02: Compound A 8 mg/kg oral Mon/Wed/Fri, study day 33) was 1631.82 mm^3. The “Tumor volume, Geometric Mean” value (Group 02: Compound A 8 mg/kg oral Mon/Wed/Fri, study day 36) was 1616.05 mm^3.
`CO[C@@H](C)Cn1c(=O)n(C)c2cnc3ccc(-c4cncc(C(C)(C)O)c4)cc3c21` [Compound B, 8-[5-(1-hydroxy-1-methylethyl)pyridin-3-yl]-1-[(2S)-2-methoxypropyl]-3-methyl-1,3-dihydro-2H-imidazo[4,5-c]quinolin-2-one] was tested, and the “Tumor volume, Geometric Mean” value (Group 03: Compound B 30 mg/kg oral daily, study day 7 (before first dose)) was 149.36 mm^3, the “Tumor volume, Geometric Mean” value (Group 03: Compound B 30 mg/kg oral daily, study day 9 (before first dose)) was 118.70 mm^3 and the “Tumor volume, Geometric Mean” value (Group 03: Compound B 30 mg/kg oral daily, study day 12) was 138.06 mm^3. The “Tumor volume, Geometric Mean” value (Group 03: Compound B 30 mg/kg oral daily, study day 15) was 201.95 mm^3, the “Tumor volume, Geometric Mean” value (Group 03: Compound B 30 mg/kg oral daily, study day 19) was 326.33 mm^3 and the “Tumor volume, Geometric Mean” value (Group 03: Compound B 30 mg/kg oral daily, study day 22) was 488.21 mm^3. The “Tumor volume, Geometric Mean” value (Group 03: Compound B 30 mg/kg oral daily, study day 26) was 776.88 mm^3, the “Tumor volume, Geometric Mean” value (Group 03: Compound B 30 mg/kg oral daily, study day 29) was 1135.14 mm^3 and the “Tumor volume, Geometric Mean” value (Group 03: Compound B 30 mg/kg oral daily, study day 33) was 1527.41 mm^3. For the same compound, the “Tumor volume, Geometric Mean” value (Group 03: Compound B 30 mg/kg oral daily, study day 36) was 1664.20 mm^3.
In the case of `CO[C@H]1C[C@@H]2CC[C@@H](C)[C@@](O)(O2)C(=O)C(=O)N2CCCC[C@H]2C(=O)O[C@H]([C@H](C)C[C@@H]2CC[C@@H](O)[C@H](OC)C2)CC(=O)[C@H](C)/C=C(\C)[C@@H](O)[C@@H](OC)C(=O)[C@H](C)C[C@H](C)/C=C/C=C/C=C/1C` [rapamycin, reference compound], the “Tumor volume, Geometric Mean” value (Group 04: rapamycin 4 mg/kg, study day 7 (before first dose)) is reported as 130.45 mm^3, the “Tumor volume, Geometric Mean” value (Group 04: rapamycin 4 mg/kg, study day 9 (before first dose)) is reported as 100.08 mm^3 and the “Tumor volume, Geometric Mean” value (Group 04: rapamycin 4 mg/kg, study day 12) is reported as 130.81 mm^3. For the same compound, the “Tumor volume, Geometric Mean” value (Group 04: rapamycin 4 mg/kg, study day 15) was 215.88 mm^3, the “Tumor volume, Geometric Mean” value (Group 04: rapamycin 4 mg/kg, study day 19) was 428.88 mm^3 and the “Tumor volume, Geometric Mean” value (Group 04: rapamycin 4 mg/kg, study day 22) was 786.46 mm^3. The “Tumor volume, Geometric Mean” value (Group 04: rapamycin 4 mg/kg, study day 26) was 1291.64 mm^3, the “Tumor volume, Geometric Mean” value (Group 04: rapamycin 4 mg/kg, study day 29) was 1664.57 mm^3 and the “Tumor volume, Geometric Mean” value (Group 04: rapamycin 4 mg/kg, study day 33) was 2136.31 mm^3. For the same compound, the “Tumor volume, Geometric Mean” value (Group 04: rapamycin 4 mg/kg, study day 36) was 2461.81 mm^3.
